Laboratory results from US5656662A, “Synthesis of optically pure 4-alkenyl- or 4-alkanyl-2-hydroxytetronic acids” (The Ohio State University Research Foundation, priority 1995, dated 1997).
Where “and” joins values, the source holds several entries; their conditions need not be identical. Equal values may be shown once. Read-outs that look alike come from different tables or passages of the source.

How the values were obtained:
[1] = tested on: human platelet; details: cited from earlier work; for IC50: literature, read-out: IC50, inhibition of AA-induced platelet aggregation
[2] = tested on: human platelet-rich plasma; test: Inhibition of arachidonic acid-induced aggregation in human platelet-rich plasma; type: cell-based
Procedure: The R- and S-enantiomers were tested as inhibitors of arachidonic acid-induced aggregation in human platelet-rich plasma. Data for individual experiments (2 separate donors) are given as pIC50 (log molar inhibitory concentration of each drug which blocks aggregation to arachidonic acid by 50%) Inhibitors were preincubated for 1 minute prior to addition of arachidonic acid (200-400 μM). Changes in light transmission were measured as an index of aggregation and quantified after 4 minutes.

[3] = tested on: platelet function; details: cited from earlier work
[4] = Homo sapiens, arithmetic average of raw data, N = 3, read-out: inhibitory concentration which blocks aggregation by 50%, AVE
[5] = Homo sapiens, average, N = 3, read-out: pIC50 (-1xLOG(0.000001xDATA)), AVE (converted)
[6] = Homo sapiens, geometric mean, N = 3, read-out: inhibitory concentration which blocks aggregation by 50%, back-transformed data (Geometric mean) AVE

Row | SMILES | IC50 [1] | IC50 [2, 4] | IC50 [2, 5] | IC50 [2, 6] | also measured
1 | O=C1OC(c2ccc(-c3ccc(Cl)cc3)cc2)C(O)=C1O (centres unmarked) [4-(4'-chlorobiphenyl)-2-hydroxytetronic acids] | 44 µM | – | – | – | –
2 | CCCCC/C=C\C/C=C\C/C=C\C/C=C\CC[C@H]1OC(=O)C(O)=C1O [(R)-3,4-Dihydroxy-5-[all-Z)-3,6,9,12-octadecatetraenyl]-2(51H)-furanone] | – | 653 µM | 647 µM | 647 µM | IC50 ([2]; Homo sapiens, individual experiments, human platelet-rich plasma, arachidonic acid 200-400 μM, 1 minute preincubation, quantified after 4 minutes, read-out: inhibitory concentration which blocks aggregation to arachidonic acid by 50% (RAW DATA)): 764 µM; IC50 ([2]; Homo sapiens, individual experiments, human platelet-rich plasma, arachidonic acid 200-400 μM, read-out: pIC50 (-1xLOG(0.000001xDATA)) (converted)): 764 µM; pIC50 (-1xLOG(0.000001xDATA)) ([2]; individual experiments, human platelet-rich plasma, arachidonic acid 200-400 μM): 3.269 and 3.182; IC50 ([2]; individual experiments, human platelet-rich plasma, arachidonic acid 200-400 μM, 1 minute preincubation, quantified after 4 minutes, read-out: inhibitory concentration which blocks aggregation to arachidonic acid by 50% (RAW DATA)): 538 µM and 657 µM
3 | CCCCC/C=C\C/C=C\C/C=C\C/C=C\CC[C@@H]1OC(=O)C(O)=C1O [(S)-3,4 -Dihydroxy-5-[(all-Z)-3,6,9,12-octadecatetraenyl]-2 (5H)-furanone] | – | 2.27 µM | 1.45 µM | 1.45 µM | –
4 | O=C1OC(c2ccc(Cl)cc2)C(O)=C1O (centres unmarked) [CHTA, 4-(4-chlorophenyl)-2-hydroxytetronic acid] | – | – | – | – | antilipidemic and antiaggregatory properties [1]: possesses antilipidemic and antiaggregatory properties; inhibition of platelet function [3]: inhibits platelet function by both enzyme inhibitory and ROS scavenging mechanisms resulting ultimately in the blockage of thromboxane A2 synthesis
5 | O=C1OC(c2ccc(-c3ccccc3)cc2)C(O)=C1O (centres unmarked) [Example 4-biphenyl] | 135 µM | – | – | – | –
